What was measured:
Assay type in all cases: in vivo
[1] = test system: cell count in the retinal ganglion cell layer; test: NMDA-induced rat retinal disorder model, retinal section evaluation (GCL cell count) after oral administration; settings: 10 nmol NMDA intravitreously, 30 mg/kg orally twice a day for 3 days, eyeballs enucleated 3 days after NMDA, non-treatment group = 100%, NMDA + base = 0%
Source text: A NMDA-induced rat retinal disorder model (Invest. Ophthalmol. Vis. Sci., 2003; 44:385-392) employed widely as an optic nerve disorder model was employed to evaluate the usefulness (retinal nerve cell death inhibiting effect) of the present compound.
A rat [Slc:SD, male, about 7 week-old) was allowed to inhale a gas containing 3 to 4% (v/v) vaporized isoflurane at a rate of 1 to 1.5 L air/min to accomplish a systemic introducing anesthesia, followed by a maintaining anesthesia with 2 to 3% (v/v) isoflurane. Thereafter, 5 μl of a solution of NMDA (Sigma, catalog No. M3262) dissolved at 2 mmol/L in a phosphate buffer (hereinafter referred to also as “PBS”) was given intravitreously (10 nmol as NMDA).
The rat 3 days after the intravitreous administration of the NMDA solution was treated with a 100 mg/kg sodium pentobarbital injection solution by an intraperitoneal administration to accomplish a systemic anesthesia and then the eyeballs were enucleated. The enucleated eyeballs were fixed in a 25%(w/v) glutaraldehyde: 10% (w/v) neutral buffered formalin=1:9 mixture. The fixed eyeballs were embedded with a paraffin and then sliced into retinal sections (3 μm in thickness), which were then subjected to a hematoxylin and eosin staining. Eight retinal sections were taken per eyeball at intervals of 45 μm so that the optic nerve papilla was included. Among these 8 sections, 3 sections were selected randomly, and a selected section was photographed for the retina of 700 to 900 μm in width with its center being located about 1.25 mm from the optic nerve papilla, using which the cell count in the retinal ganglion cell layer (hereinafter referred to also as “GCL cell count”) was calculated (average value). From the resultant GCL cell count, a % GCL cell count reduction inhibition of each test substance was calculated according to Equation 1 while assigning 100% to the non-treatment group and 0% to a group of 10 nmol NMDA given intravitreously+base given orally. Each group included 4 animals (7 to 8 eyeballs).
% GCL cell count reduction inhibition=(NX−NO)/(NU−NO)×100 [Equation 1] […]

[2] = Body weight evaluation in NMDA-induced rat retinal disorder model after oral administration; settings: 10 nmol NMDA intravitreously, 30 mg/kg orally twice a day for 3 days; for Weight gain (average): from day of NMDA administration to eyeball enucleation, non-treatment group 14.1
Description: Over a period from the day of the intravitreous NMDA administration through the eyeball enucleation, each individual animal was weighed once a day. Based on the body weight of the individual animal on the day of the intravitreous NMDA administration, the difference from the body weight on the day of the eyeball enucleation was calculated and the weight gain of each individual animal was calculated (average value). Each group included 4 animals. 5 μL of an NMDA solution dissolved in PBS (10 nmol as NMDA) was administered intravitreously. A 0.5% (w/v) aqueous solution of methyl cellulose was given by a repetitive oral administration twice a day in a volume of 10 mL/kg for 3 days from the day of the intravitreous NMDA administration until 2 days later. On the day of the intravitreous NMDA administration, a 0.5% (w/v) aqueous solution of methyl cellulose was given orally two times which were about 1 hour before the intravitreous NMDA administration and 1 to 2 hours. 5 μL of an NMDA solution dissolved in PBS (10 nmol as NMDA) was administered intravitreously. Each test compound suspended in 0.5% (w/v) methyl cellulose solution was given at a dose of 30 mg/kg by a repetitive oral administration twice a day in a volume of 10 mL/kg for 3 days from the day of the intravitreous NMDA administration until 2 days later. On the day of the intravitreous NMDA administration, each test compound suspended in 0.5% (w/v) methyl cellulose solution was given orally at a dose of 30 mg/kg two times which were about 1 hour before the NMDA administration and 1 to 2 hours. As a control compound, memantine was employed. 5 μL of an NMDA solution in PBS (10 nmol as NMDA) was administered intravitreously. Memantine dissolved in 0.5% (w/v) methyl cellulose solution was given at a dose of 30 mg/kg by a repetitive oral administration twice a day in a volume of 10 mL/kg for 3 days from the day of the intravitreous NMDA administration until 2 days later. On the day of the intravitreous NMDA administration, memantine dissolved in 0.5% (w/v) methyl cellulose solution was given orally at a dose of 30 mg/kg two times which were about 1 hour before the NMDA administration and 1 to 2 hours.

[3] = test system: neurofilament light chain (NFL) expression level in the retinal tissue; test: NMDA-induced rat retinal disorder model, quantitative PCR evaluation of NFL expression after intravitreous administration; settings: 10 nmol NMDA mixed with 15 nmol/eye compound intravitreously, retina isolated 1 day after, NFL corrected by GAPDH, non-treatment group = 100%, NMDA group = 0%
Description: In the NMDA-induced rat retinal disorder model, the efficacy of the test compounds were evaluated using as an index the expression level in the retinal tissue of the neurofilament light chain (hereinafter referred to also as “NFL”) which is one of major constituents of the optic nerve axon and is considered to be important in maintaining the morphology of the optic nerve axon. The rat 1 day after the intravitreous administration of NMDA was treated with a 100 mg/kg sodium pentobarbital injection solution by an intraperitoneal administration to accomplish a systemic anesthesia and then the eyeballs were enucleated, and the retina was isolated. […] RR037B). In accordance with the instruction attached to QuantiTect Multiplex PCR Kit (1000) (QIAGEN, catalog No. 204545), QuantiTect Multiplex PCR Master Mix, the synthesized cDNA, the primers/probe for NFL (Sigma, “Ordermade”) and the primers/probe for glycerylaldehyde 3-phosphate dehydrogenase (hereinafter referred to also as “GAPDH”) (Applied Biosystems, Catalog No. 4352338E) were mixed, and a quantitative PCR machine (Applied Biosystems, Catalog No. 7500-03) was employed to conduct a PCR reaction, whereby measuring the expression levels of NFL and GAPDH. From the NFL and GAPDH expression levels thus obtained, a relative NFL expression level was calculated by correcting the NFL expression level based on the housekeeping gene GAPDH expression level in accordance with Equation 2. […] Each group included 1 animal (2 eyeballs). % Relative NFL expression level=(NFL expression level/GAPDH expression level) [Equation 2] % NFL recovery=(EX−EO)/(EP−EO)×100 [Equation 3] wherein EP is a relative NFL expression level in the non-treatment group, EO is a relative NFL expression level in the group of 10 nmol intravitreous NMDA administration and EX is a relative NFL expression level in the group of intravitreous administration of 10 nmol NMDA mixed with each compound. 5 μL of an NMDA solution dissolved in a 30% (v/v) DMSO-containing purified water (10 nmol as NMDA) was administered intravitreously. […]

| Compound | % Inhibition of GLC cell count reduction [1] | Weight gain compared with the non-treatment group (in words) [2] | Weight gain (average) [2] | % NFL Recovery (%, average) [3] |
| --- | --- | --- | --- | --- |
| O=C(/C=C/c1c(C(=O)O)[nH]c2cc(Cl)cc(Cl)c12)Nc1ccccc1 [Compound A′, Sodium (E)-4,6-dichloro-3-(3-oxo-3-(phenylamino)-1-propenyl)-1H-indole-2-carboxylate] | 17.0% | weight gain almost equivalent to that in the non-treatment group | 12.6 | 86.6% |
| O=C(O)c1[nH]c2cc(Cl)cc(Cl)c2c1/C=C1\CCN(c2ccccc2)C1=O [Compound B′, sodium (E)-4,6-dichloro-3-((2-oxo-1-phenyl-3-pyrrolidinylidene)methyl)-1H-indole-2-carboxylate] | 14.8% | weight gain almost equivalent to that in the non-treatment group | 14.0 | 80.7% |
| CC12CC3CC(C)(C1)CC(N)(C3)C2 [memantine, reference compound] | 20.7% | inhibited the weight gain | −3.6 | 33.6% |

— US20110319463A1, “PREVENTIVE OR THERAPEUTIC AGENTS FOR OPTIC NERVE DISORDERS COMPRISING 4,6-DICHLORO-1H-INDOLE-2-CARBOXYLIC ACID DERIVATIVES OR SALTS THEREOF AS ACTIVE INGREDIENTS” (Saten Pharamaceuticals Co., Ltd., priority 2009, published 2011)
